Data from patent EP3623369A1, “NOVEL MORPHOLINYL AMINE COMPOUNDS FOR THE TREATMENT OF AUTOIMMUNE DISEASE” (F. Hoffmann-La Roche AG, priority 2018, dated 2020).
pIC50: −log10 of the molar value.

Legend:
[1] = Human microsome stability assay; type: in vitro ADME; conditions: human liver microsomes, 1 µM test compound, 0.5 mg/mL protein, 37°C, up to 30 minutes
Protocol: Human microsome stability assay
The human microsomal stability assay is used for early assessment of metabolic stability of a test compound in human liver microsomes.
Human liver microsomes (Cat.NO.: 452117, Corning, USA;Cat.NO.:H2610, Xenotech, USA) were preincubated with test compound for 10 minutes at 37°C in 100 mM potassium phosphate buffer, pH 7.4. The reactions were initiated by adding NADPH regenerating system. The final incubation mixtures contained 1 µM test compound, 0.5 mg/mL liver microsomal protein, 1 mM MgCl2, 1 mM NADP, 1 unit/mL isocitric dehydrogenase and 6 mM isocitric acid in 100 mM potassium phosphate buffer, pH 7.4. After incubation times of 0, 3, 6, 9, 15 and 30 minutes at 37°C, 300 µL of cold acetonitrile (including internal standard) was added to 100 µL incubation mixture to terminate the reaction. Following precipitation and centrifugation, the amount of compound remaining in the samples were determined by LC-MS/MS. Controls of no NADPH regenerating system at zero and 30 minutes were also prepared and analyzed. […] Table 3. Human liver microsome stability of the compounds of present invention

hTLR7 = molecular target: T1, hTLR7 (Homo sapiens, UniProt Q9NYK1); set-up: host or cells: HEK; conditions: data disclosed in US20150105370; read-out: HEK/hTLR7 IC50; cited from earlier work
T1 sequence (Q9NYK1 27-1049): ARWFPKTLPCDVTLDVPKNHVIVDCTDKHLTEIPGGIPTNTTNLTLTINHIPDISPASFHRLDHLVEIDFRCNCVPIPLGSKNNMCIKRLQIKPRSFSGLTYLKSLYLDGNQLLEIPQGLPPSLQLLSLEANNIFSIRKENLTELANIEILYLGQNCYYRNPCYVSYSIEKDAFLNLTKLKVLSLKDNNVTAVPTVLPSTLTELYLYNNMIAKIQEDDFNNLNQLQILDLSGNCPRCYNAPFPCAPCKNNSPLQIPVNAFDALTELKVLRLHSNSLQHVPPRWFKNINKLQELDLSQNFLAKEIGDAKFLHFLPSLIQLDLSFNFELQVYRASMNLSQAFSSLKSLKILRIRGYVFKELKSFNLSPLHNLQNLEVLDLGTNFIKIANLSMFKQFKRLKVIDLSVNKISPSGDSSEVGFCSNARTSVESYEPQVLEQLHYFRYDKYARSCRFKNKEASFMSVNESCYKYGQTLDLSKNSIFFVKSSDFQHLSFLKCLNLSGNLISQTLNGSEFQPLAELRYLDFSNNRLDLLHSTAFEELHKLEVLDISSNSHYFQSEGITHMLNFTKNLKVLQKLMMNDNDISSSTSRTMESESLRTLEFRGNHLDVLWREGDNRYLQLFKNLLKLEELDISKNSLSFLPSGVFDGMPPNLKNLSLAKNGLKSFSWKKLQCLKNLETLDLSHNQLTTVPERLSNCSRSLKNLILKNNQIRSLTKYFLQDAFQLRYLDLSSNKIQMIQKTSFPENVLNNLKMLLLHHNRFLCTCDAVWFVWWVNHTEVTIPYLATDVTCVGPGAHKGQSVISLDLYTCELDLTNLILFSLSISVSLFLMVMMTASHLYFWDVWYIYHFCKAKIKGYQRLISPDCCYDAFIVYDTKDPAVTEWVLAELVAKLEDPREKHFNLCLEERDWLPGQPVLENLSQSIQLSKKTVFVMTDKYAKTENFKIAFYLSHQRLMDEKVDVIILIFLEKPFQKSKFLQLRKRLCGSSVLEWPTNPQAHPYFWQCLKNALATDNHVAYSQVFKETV

hTLR9 = molecular target: T2, hTLR9 (Homo sapiens, UniProt Q9NR96); set-up: host or cells: HEK; conditions: data disclosed in US20150105370; read-out: HEK/hTLR9 IC50; cited from earlier work
T2 sequence (Q9NR96 26-1032): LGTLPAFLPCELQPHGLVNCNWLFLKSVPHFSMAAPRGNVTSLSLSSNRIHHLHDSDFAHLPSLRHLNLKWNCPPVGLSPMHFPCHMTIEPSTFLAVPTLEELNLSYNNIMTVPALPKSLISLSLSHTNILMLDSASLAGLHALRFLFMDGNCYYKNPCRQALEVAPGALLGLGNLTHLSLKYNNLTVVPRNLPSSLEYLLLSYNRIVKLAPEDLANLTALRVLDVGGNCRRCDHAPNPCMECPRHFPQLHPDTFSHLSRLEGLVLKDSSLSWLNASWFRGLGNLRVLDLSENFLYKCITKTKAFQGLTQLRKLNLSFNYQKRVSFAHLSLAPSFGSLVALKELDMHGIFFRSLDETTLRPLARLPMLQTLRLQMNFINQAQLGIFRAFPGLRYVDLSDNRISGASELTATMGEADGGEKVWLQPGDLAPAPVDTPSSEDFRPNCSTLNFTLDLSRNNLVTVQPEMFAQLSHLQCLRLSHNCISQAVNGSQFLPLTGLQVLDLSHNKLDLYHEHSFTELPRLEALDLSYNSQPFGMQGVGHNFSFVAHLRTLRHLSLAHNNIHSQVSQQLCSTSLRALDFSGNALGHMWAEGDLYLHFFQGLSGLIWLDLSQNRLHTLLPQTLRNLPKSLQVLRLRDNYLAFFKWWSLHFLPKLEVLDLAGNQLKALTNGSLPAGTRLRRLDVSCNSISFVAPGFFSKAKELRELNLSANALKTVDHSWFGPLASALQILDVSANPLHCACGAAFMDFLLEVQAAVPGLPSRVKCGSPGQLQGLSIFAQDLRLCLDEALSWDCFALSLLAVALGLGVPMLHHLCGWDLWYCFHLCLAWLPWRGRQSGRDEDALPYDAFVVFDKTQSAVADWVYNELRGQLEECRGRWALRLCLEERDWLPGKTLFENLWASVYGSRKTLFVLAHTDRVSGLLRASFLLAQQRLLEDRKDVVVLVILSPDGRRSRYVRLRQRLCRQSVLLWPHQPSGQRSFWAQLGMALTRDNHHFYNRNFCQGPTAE

Structure (SMILES)	Clearance of Human microsome [1] [mL/min/kg]	pIC50 (hTLR7)	pIC50 (hTLR9)
C[C@@H]1CN(c2ccc(C#N)c3nccnc23)C[C@H](CN2Cc3ccc(N4CC5CCC(C4)N5)cc3C2)O1 [Example 44, 8-[(2S,6R)-2-[[5-(3,8-diazabicyclo[3.2.1]octan-3-yl)isoindolin-2-yl]methyl]-6-methyl-morpholin-4-yl]quinoxaline-5-carbonitrile]	6.94		
C[C@@H]1CN(c2ccc(C#N)c3ncccc23)C[C@H](CNc2ccccc2)O1 [ER-886601]		7.82	< 5.70
Cc1nc2cc(NC[C@H]3CN(c4ccc(C#N)c5ncccc45)C[C@@H](C)O3)ccc2n1C [ER-886608]		7.89	5.47
Cc1cccc(NC[C@H]2CN(c3ccc(C#N)c4ncccc34)C[C@@H](C)O2)c1 [ER-886602]		6.73	< 4.70
Cc1cccc(NC[C@H]2CN(c3ccc(C#N)c4ncccc34)C[C@@H](C)O2)n1 [ER-886799]		8.15	< 5.70
C[C@@H]1CN(c2ccc(C#N)c3ncccc23)C[C@H](CN2Cc3ccc(N4CCNCC4C(=O)O)cc3C2)O1 (stereo partly drawn) [Example 56, 1-[2-[[(2S,6R)-4-(8-cyano-5-quinolyl)-6-methyl-morpholin-2-yl]methyl]isoindolin-5-yl]piperazine-2-carboxylic acid]	6.51		
